The assay concerns Micrococcus luteus. As to the kind of experiment: Antimicrobial activity against Micrococcus luteus at 10 ug after 24 hrs by paper disk method. Format: functional. The following applies: read-out: DIZ.

As to `CC(C)[C@H](NC(=O)Cc1ccccc1)C(=O)N[C@H](CC(=O)O)C(=O)N[C@@H](C)C(=O)N[C@@H](C(=O)NCC(=O)N[C@H](C)C(=O)N[C@@H](Cc1ccccc1)C(=O)O)[C@@H](O)C(C)C`, the zone of inhibition at 10 µg/disc stood at 7.1 mm.
With `CC[C@H]1OC(=O)[C@H](C)[C@@H](O[C@H]2C[C@@](C)(OC)[C@@H](O)[C@H](C)O2)[C@H](C)[C@@H](O[C@@H]2O[C@H](C)C[C@H](N(C)C)[C@H]2O)[C@](C)(O)C[C@@H](C)C(=O)[C@H](C)[C@@H](O)[C@]1(C)O` [ERYTHROMYCIN] the figure was 25 mm.

Values taken from ChEMBL document CHEMBL2010684, “JBIR-78 and JBIR-95: phenylacetylated peptides isolated from Kibdelosporangium sp. AK-AA56” (2012).
